According to patent US20250346592A1 (Celgene Corporation, priority 2022, published 2025):

These compounds were tested against hPAD4 enzyme (Homo sapiens (Human), UniProt Q9UM07) (assay: RFMS2 assay (RapidFire mass spectrometry, TSTGGRQGSHH peptide substrate)). Details: 35 nM recombinant human PAD4, 500 μM TSTGGRQGSHH peptide, 30 minutes at room temperature; read-out: RFMS 2 IC50.
Assay type: biochemical
Method: Stock compounds were dissolved and stored in 100% DMSO. Compound solutions were prepared via serial dilution at 3-fold intervals in DMSO with top compound concentration at 20 μM in each assay. 0.25 μl of compound solution was transferred from the compound plate to the assay plate by using an acoustic dispenser.
• Total reaction volume: 25 μl • Assay buffer: […] pH 7.4, 200 mM NaCl, 2 mM CaCl2, 5 mM DTT • 35 nM recombinant human PAD4 • 500 μM TSTGGRQGSHH peptide • 1.2% DMSO • Stop solution: 10% formic acid
Reaction mixtures were incubated at room temperature for 30 minutes. 10 μl each of the reaction mixtures was then mixed with 40 μl of 10% formic acid in a microtiter plate. The plate was frozen at −80° C. before shipping out on dry ice for RapidFire mass spectroscopy analysis.
Thawed samples were loaded onto the Rapid Fire 300 system (Agilent) wherein they were first sipped for 250 ms and then loaded onto a Agilent “C” (C18) cartridge using a mobile phase of water containing 0.09% formic acid/0.01% trifluoroacetic acid for 3000 ms desalting flowing at a rate of 1.5 ml/min. Once the samples were loaded and washed, a mobile phase of acetonitrile containing 0.09% formic acid/0.01% trifluoroacetic acid was used to elute the samples directly onto a Sciex API4000 triple quadrupole mass spectrometer for 3000 ms at a flow rate of 1.25 ml/min.
MRM transitions for substrate and product were monitored in positive ESI mode at m/z=562.3/969.7 and m/z=562.8/541.3 respectively. The dwell time for each transition was set at 100 ms, and the ESI voltage was used at 5500 with a source temperature of 650° C. Extracted ion peaks for each transition were integrated using the Rapid Fire Integrator software.
Compounds having an activity designated as “A” provided an IC50≤10 nM; compounds having an activity designated as “B” provided an IC50 11-100 nM; compounds having an activity designated as “C” provided an IC50 101-500 nM; compounds having an activity designated as “D” provided an IC50 501-1000 nM; compounds having an activity designated as “E” provided an IC50>1000 nM.

hPAD4 enzyme, sequence (Q9UM07 whole entry): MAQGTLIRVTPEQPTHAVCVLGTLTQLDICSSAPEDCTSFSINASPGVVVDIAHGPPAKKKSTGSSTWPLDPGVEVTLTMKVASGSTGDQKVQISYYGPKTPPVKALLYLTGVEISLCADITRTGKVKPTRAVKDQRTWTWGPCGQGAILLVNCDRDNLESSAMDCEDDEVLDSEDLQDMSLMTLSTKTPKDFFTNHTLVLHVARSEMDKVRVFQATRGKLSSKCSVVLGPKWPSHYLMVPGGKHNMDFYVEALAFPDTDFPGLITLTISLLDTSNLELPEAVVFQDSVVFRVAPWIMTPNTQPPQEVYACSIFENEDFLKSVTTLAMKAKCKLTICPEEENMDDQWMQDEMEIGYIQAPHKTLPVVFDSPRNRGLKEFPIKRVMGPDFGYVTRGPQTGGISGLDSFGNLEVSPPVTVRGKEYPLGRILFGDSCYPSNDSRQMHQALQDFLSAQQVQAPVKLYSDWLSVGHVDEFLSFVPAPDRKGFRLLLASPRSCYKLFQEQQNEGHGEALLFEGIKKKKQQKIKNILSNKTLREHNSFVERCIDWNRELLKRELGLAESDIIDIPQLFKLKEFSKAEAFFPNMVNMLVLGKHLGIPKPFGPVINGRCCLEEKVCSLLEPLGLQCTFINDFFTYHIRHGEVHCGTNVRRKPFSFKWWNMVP

Row | Structure (SMILES) | IC50 [nM]
1 | COCC(C)c1ccc2cc(-c3nc4cc5c(cc4n3C)CCN(C[C@@H](C)N)C5=O)n(CC3CC3)c2c1 (single isomer, unassigned) [Example 40] | > 1000
2 | COCC(C)n1c(-c2nc3cc4c(cc3n2C)CCN(C[C@H](N)CF)C4=O)cc2cccc(OC)c21 (single isomer, unassigned) [Example 123a] | > 1000
3 | COc1cccc2cc(-c3nc4cc5c(cc4n3C)CCN(C[C@H](N)CF)C5=O)n(CC(C)OC)c12 (single isomer, unassigned) [Example 131] | 501 to 1000
4 | Cn1c(-c2cc3cccc(OCC4(C)CNC(=O)C4)c3n2CC2CC2)nc2cc3c(cc21)CCN(C[C@H](N)CF)C3=O (single isomer, unassigned) [Example 220] | 501 to 1000
5 | CCN[C@H](C)CN1CCc2cc3c(cc2C1=O)nc(-c1cc2ccccc2n1CC1CC1)n3C [Example 2, (R)-2-(1-(cyclopropylmethyl)-1H-indol-2-yl)-6-(2-(ethylamino)propyl)-1-methyl-1,6,7,8-tetrahydro-5H-imidazo[4,5-g]isoquinolin-5-one] | 501 to 1000
6 | CCCN[C@H](C)CN1CCc2cc3c(cc2C1=O)nc(-c1cc2ccccc2n1CC1CC1)n3C [Example 4, (R)-2-(1-(cyclopropylmethyl)-1H-indol-2-yl)-1-methyl-6-(2-(propylamino)propyl)-1,6,7,8-tetrahydro-5H-imidazo[4,5-g]isoquinolin-5-one] | > 1000
7 | Cn1c(-c2cc3ccccc3n2CC2CC2)nc2cc3c(cc21)CCN(CC(N)CC(F)(F)F)C3=O (centres unmarked) [Example 7, 6-(2-amino-4,4,4-trifluorobutyl)-2-(1-(cyclopropylmethyl)-1H-indol-2-yl)-1-methyl-1,6,7,8-tetrahydro-5H-imidazo[4,5-g]isoquinolin-5-one] | > 1000
8 | Cn1c(-c2cc3ccccc3n2CC2CC2)nc2cc3c(cc21)CCN(CC1CNCCN1)C3=O (centres unmarked) [Example 8, 2-(1-(cyclopropylmethyl)-1H-indol-2-yl)-1-methyl-6-(piperazin-2-ylmethyl)-1,6,7,8-tetrahydro-5H-imidazo[4,5-g]isoquinolin-5-one] | > 1000
9 | C[C@@H](N)CN1CCc2cc3c(cc2C1=O)nc(-c1cc2ccnc(Cl)c2n1CC1CC1)n3C [Example 22, (R)-6-(2-aminopropyl)-2-(7-chloro-1-(cyclopropylmethyl)-1H-pyrrolo[2,3-c]pyridin-2-yl)-1-methyl-1,6,7,8-tetrahydro-5H-imidazo[4,5-g]isoquinolin-5-one] | > 1000
10 | Cc1c(-c2nc3cc4c(cc3n2C)CCN(C[C@@H](C)N)C4=O)n(CC2CC2)c2ccccc12 [Example 23, (R)-6-(2-aminopropyl)-2-(1-(cyclopropylmethyl)-3-methyl-1H-indol-2-yl)-1-methyl-1,6,7,8-tetrahydro-5H-imidazo[4,5-g]isoquinolin-5-one] | > 1000
11 | C[C@@H](N)CN1CCc2cc3c(cc2C1=O)nc(-c1cc2ccncc2n1CC1CC1)n3C [Example 24, (R)-6-(2-aminopropyl)-2-(1-(cyclopropylmethyl)-1H-pyrrolo[2,3-c]pyridin-2-yl)-1-methyl-1,6,7,8-tetrahydro-5H-imidazo[4,5-g]isoquinolin-5-one] | > 1000
12 | Cc1ccc2c(c1)cc(-c1nc3cc4c(cc3n1C)CCN(C[C@@H](C)N)C4=O)n2CC1CC1 [Example 26, (R)-6-(2-aminopropyl)-2-(1-(cyclopropylmethyl)-5-methyl-1H-indol-2-yl)-1-methyl-1,6,7,8-tetrahydro-5H-imidazo[4,5-g]isoquinolin-5-one] | > 1000
13 | C[C@@H](N)CN1CCc2cc3c(cc2C1=O)nc(-c1cc2cccc(C#N)c2n1CC1CC1)n3C [Example 27, (R)-2-(6-(2-aminopropyl)-1-methyl-5-oxo-5,6,7,8-tetrahydro-1H-imidazo[4,5-g]isoquinolin-2-yl)-1-(cyclopropylmethyl)-1H-indole-7-carbonitrile] | 501 to 1000
14 | Cc1ccc2cc(-c3nc4cc5c(cc4n3C)CCN(C[C@@H](C)N)C5=O)n(CC3CC3)c2c1 [Example 29, (R)-6-(2-aminopropyl)-2-(1-(cyclopropylmethyl)-6-methyl-1H-indol-2-yl)-1-methyl-1,6,7,8-tetrahydro-5H-imidazo[4,5-g]isoquinolin-5-one] | 101 to 500
15 | C[C@@H](N)CN1CCc2cc3c(cc2C1=O)nc(-c1cc2cccc(F)c2n1CC1CC1)n3C [Example 30, (R)-6-(2-aminopropyl)-2-(1-(cyclopropylmethyl)-7-fluoro-1H-indol-2-yl)-1-methyl-1,6,7,8-tetrahydro-5H-imidazo[4,5-g]isoquinolin-5-one] | 101 to 500
16 | COc1nccc2cc(-c3nc4cc5c(cc4n3C)CCN(C[C@@H](C)N)C5=O)n(CC3CC3)c12 [Example 31, (R)-6-(2-aminopropyl)-2-(1-(cyclopropylmethyl)-7-methoxy-1H-pyrrolo[2,3-c]pyridin-2-yl)-1-methyl-1,6,7,8-tetrahydro-5H-imidazo[4,5-g]isoquinolin-5-one] | 501 to 1000

Second part, the compound after the results:

Row | IC50 [nM] | Structure (SMILES)
17 | 101 to 500 | COCC(C)c1ccc2cc(-c3nc4cc5c(cc4n3C)CCN(C[C@@H](C)N)C5=O)n(CC3CC3)c2c1 (single isomer, unassigned) [Example 41]
18 | 101 to 500 | COc1cccc2cc(-c3nc4cc5c(cc4n3C)CCN(C[C@H](N)CF)C5=O)n(CC(C)OC)c12 (single isomer, unassigned) [Example 130]
19 | 101 to 500 | Cn1c(-c2cc3cccc(OCCC4CNC(=O)C4)c3n2CC2CC2)nc2cc3c(cc21)CCN(C[C@H](N)CF)C3=O (single isomer, unassigned) [Example 178]
20 | 101 to 500 | Cn1c(-c2cc3cccc(OCCC4CNC(=O)C4)c3n2CC2CC2)nc2cc3c(cc21)CCN(C[C@H](N)CF)C3=O (single isomer, unassigned) [Example 179]
21 | 101 to 500 | Cn1c(-c2cc3cccc(OCC4(C)CNC(=O)C4)c3n2CC2CC2)nc2cc3c(cc21)CCN(C[C@H](N)CF)C3=O (single isomer, unassigned) [Example 221]
22 | 101 to 500 | Cc1ccc2cc(-c3nc4cc5c(cc4n3C)CCN(C[C@@H](C)N)C5=O)n(CC3CC3)c2c1C [Example 16, (R)-6-(2-aminopropyl)-2-(1-(cyclopropylmethyl)-6,7-dimethyl-1H-indol-2-yl)-1-methyl-1,6,7,8-tetrahydro-5H-imidazo[4,5-g]isoquinolin-5-one]
23 | 101 to 500 | Cc1cccc2cc(-c3nc4cc5c(cc4n3C)CCN(C[C@@H](C)N)C5=O)n(CC3CC3)c12 [Example 17, (R)-6-(2-aminopropyl)-2-(1-(cyclopropylmethyl)-7-methyl-1H-indol-2-yl)-1-methyl-1,6,7,8-tetrahydro-5H-imidazo[4,5-g]isoquinolin-5-one]
24 | 101 to 500 | COc1ccc2cc(-c3nc4cc5c(cc4n3C)CCN(C[C@@H](C)N)C5=O)n(CC3CC3)c2c1 [Example 18, (R)-6-(2-aminopropyl)-2-(1-(cyclopropylmethyl)-6-methoxy-1H-indol-2-yl)-1-methyl-1,6,7,8-tetrahydro-5H-imidazo[4,5-g]isoquinolin-5-one]
25 | 101 to 500 | CC(C)c1cccc2cc(-c3nc4cc5c(cc4n3C)CCN(C[C@@H](C)N)C5=O)n(CC3CC3)c12 [Example 19, (R)-6-(2-aminopropyl)-2-(1-(cyclopropylmethyl)-7-isopropyl-1H-indol-2-yl)-1-methyl-1,6,7,8-tetrahydro-5H-imidazo[4,5-g]isoquinolin-5-one]
26 | 101 to 500 | C[C@@H](N)CN1CCc2cc3c(cc2C1=O)nc(-c1cc2ccc(C(F)(F)F)cc2n1CC1CC1)n3C [Example 20, (R)-6-(2-aminopropyl)-2-(1-(cyclopropylmethyl)-6-(trifluoromethyl)-1H-indol-2-yl)-1-methyl-1,6,7,8-tetrahydro-5H-imidazo[4,5-g]isoquinolin-5-one]
27 | 101 to 500 | C[C@@H](N)CN1CCc2cc3c(cc2C1=O)nc(-c1cc2ccc(F)nc2n1CC1CC1)n3C [Example 21, (R)-6-(2-aminopropyl)-2-(1-(cyclopropylmethyl)-6-fluoro-1H-pyrrolo[2,3-b]pyridin-2-yl)-1-methyl-1,6,7,8-tetrahydro-5H-imidazo[4,5-g]soquinolin-5-one]
28 | 101 to 500 | C[C@@H](N)CN1CCc2cc3c(cc2C1=O)nc(-c1cc2ccc(Cl)cc2n1CC1CC1)n3C [Example 25, (R)-6-(2-aminopropyl)-2-(6-chloro-1-(cyclopropylmethyl)-1H-indol-2-yl)-1-methyl-1,6,7,8-tetrahydro-5H-imidazo[4,5-g]isoquinolin-5-one]
29 | 101 to 500 | CCc1cccc2cc(-c3nc4cc5c(cc4n3C)CCN(C[C@@H](C)N)C5=O)n(CC3CC3)c12 [Example 28, (R)-6-(2-aminopropyl)-2-(1-(cyclopropylmethyl)-7-ethyl-1H-indol-2-yl)-1-methyl-1,6,7,8-tetrahydro-5H-imidazo[4,5-g]isoquinolin-5-one]
